How the values were obtained:
Assay in all cases: relative viability (nuclei count vs DMSO), 5 days (fraction); higher = more cells survive
[1] = compound: C[C@@H](Oc1cc(-c2cnn(C3CCNCC3)c2)cnc1N)c1c(Cl)ccc(F)c1Cl [Crizotinib] + CC(=O)Nc1cccc(-n2c(=O)n(C3CC3)c(=O)c3c(Nc4ccc(I)cc4F)n(C)c(=O)c(C)c32)c1 [Trametinib] (partner 0.02 µM)
Summary of the method: (§1)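 After 5 days of treatment, lung cancer cells in 1536-well plates were fixed and stained in a single step (final 0.05% Triton X-100, 1% formaldehyde, 1 ug/ml Hoechst) and their nuclei counted on 4× images. Treatment had been applied by pin tool the day after seeding as one drug alone or as a fixed anchor-drug dose with five library-drug doses (not always all listed) in √10 steps. Relative viability is the nuclei count of treated wells divided by that of vehicle wells, and values are medians of duplicate plates.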

[2] = compound: O=C(c1cc(Cc2n[nH]c(=O)c3ccccc23)ccc1F)N1CCN(C(=O)C2CC2)CC1 [Olaparib] + COc1cccc2cc(-c3nc([C@H]4CC[C@H](C(=O)O)CC4)n4ncnc(N)c34)[nH]c12 [OSI-027] (partner 0.5 µM)
Summary of the method: as §1

[3] = compound: C[C@@H](Oc1cc(-c2cnn(C3CCNCC3)c2)cnc1N)c1c(Cl)ccc(F)c1Cl [Crizotinib] + N=C(N)NC(=N)NCCc1ccccc1 [Phenformin] (partner 250 µM)
Summary of the method: as §1

[4] = compound: CC(C)C[C@H](NC(=O)[C@H](CCc1ccccc1)NC(=O)CN1CCOCC1)C(=O)N[C@@H](Cc1ccccc1)C(=O)N[C@@H](CC(C)C)C(=O)[C@@]1(C)CO1 [Carfilzomib] + CS(=O)(=O)N1CCN(Cc2cc3nc(-c4cccc5[nH]ncc45)nc(N4CCOCC4)c3s2)CC1 [Pictilisib] (partner 1 µM)
Summary of the method: as §1

| Cell Line | relative viability ([1]; first compound 0.01 µM) | relative viability ([1]; first compound 0.03162 µM) | relative viability ([1]; first compound 0.1 µM) | relative viability ([2]; first compound 0.08 µM) | relative viability ([2]; first compound 0.253 µM) | relative viability ([2]; first compound 2.53 µM) | relative viability ([2]; first compound 8 µM) | relative viability ([3]; first compound 0.01 µM) | relative viability ([3]; first compound 0.03162 µM) | relative viability ([3]; first compound 0.1 µM) | relative viability ([3]; first compound 1 µM) | relative viability ([4]; first compound 0.001 µM) | relative viability ([4]; first compound 0.003162 µM) | relative viability ([4]; first compound 0.01 µM) | relative viability ([4]; first compound 0.03162 µM) | relative viability ([4]; first compound 0.1 µM) | relative viability ([1]; first compound 0.3162 µM) | relative viability ([1]; first compound 1 µM) | relative viability ([3]; first compound 0.3162 µM) |
| --- | --- | --- | --- | --- | --- | --- | --- | --- | --- | --- | --- | --- | --- | --- | --- | --- | --- | --- | --- |
| HCC-15 | 0.396 | 0.346 | 0.38 | 0.83 | 0.652 | 0.6 | 0.638 | 0.444 | 0.475 | 0.479 | 0.42 | 0.596 | 0.863 | 0.784 | 0.522 | 0.156 |  |  |  |
| HCC-44 | 0.933 | 1.04 | 1.03 | 0.55 | 0.424 | 0.434 | 0.565 | 0.225 | 0.263 | 0.264 | 0.13 | 0.506 | 0.674 | 0.57 | 0.654 | 0.166 | 1.15 | 1.04 | 0.173 |
| HCC-78 | 0.631 | 0.873 | 0.723 | 0.373 | 0.379 | 0.349 | 0.332 |  | 0.682 | 0.772 | 0.465 | 0.207 | 0.194 | 0.236 | 0.134 | 0.117 | 0.706 | 0.909 | 0.598 |
| HCC-366 | 0.342 | 0.388 | 0.367 | 0.856 | 0.796 | 0.762 | 0.568 | 0.597 | 0.609 | 0.65 | 0.695 | 0.129 | 0.175 | 0.17 | 0.312 | 0.0504 |  | 0.322 |  |
| HCC-827 | 0.462 | 0.567 | 0.53 | 0.772 | 0.732 | 0.872 | 0.65 | 0.359 | 0.397 | 0.412 | 0.397 | 1.06 | 1.08 | 1.06 | 1.05 | 0.487 | 0.508 | 0.552 | 0.346 |
| HOP-62 | 0.353 | 0.369 | 0.358 | 0.863 | 0.801 | 0.809 | 0.712 | 0.7 | 0.625 | 0.731 | 0.714 | 0.569 | 1.11 | 0.467 | 0.0638 | 0.0695 | 0.407 | 0.392 | 0.556 |
| IA-LM |  |  |  |  |  |  |  |  |  |  |  | 0.293 | 0.305 | 0.292 | 0.0283 | 0.0095 |  |  |  |
| LC-2-ad | 0.899 | 0.985 |  | 0.926 | 0.731 | 0.856 | 0.796 | 0.572 | 0.6 | 0.544 | 0.544 | 0.448 | 0.525 | 0.455 | 0.149 | 0.16 |  | 0.892 | 0.463 |
